From patent US20130184222A1, “[…] ACTIVE COMPOSITIONS AND THEIR METHODS OF USE” (AGIOS PHARMACEUTICALS, INC, priority 2010, published 2013)

Legend:
[1] = biological target: IDH1 R132H (Homo sapiens, UniProt O75874, R132H); test: In vitro assay for IDH1 R132H inhibitors (NADPH/aKG, resazurin detection); type: biochemical; settings: Table 4B; 0.2 μg/ml IDH1 R132H, 50 minutes at room temperature; read-out: IC50, IDH1 R132H Inhibition
How it was run: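 Buffer: 150 mM NaCl, 10 mM MgCl2, 20 mM Tris pH 7.5, 0.03% BSA. Compound was added to substrate mix (8 uM NADPH, 2 mM aKG), then enzyme mix (0.2 μg/ml IDH1 R132H), and incubated 50 min at room temperature. Remaining NADPH was read by resazurin (30 μM in detection mix) to resorufin fluorescence after 5 min, Ex544/Em590.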

[2] = test system: HT1080 cells; test: Cellular assay: inhibition of 2-HG production in HT1080 cells (LC-MS, 48 hours); type: cell-based; settings: Homo sapiens, HT-1080, 2-HG in media by LC-MS
How it was run: (§1)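 HT1080 or U87MG cells (5000/well, DMEM + 10% FBS) seeded overnight, then exposed to compound (0.2% DMSO final) for 48 h; medium 2-HG measured by LC-MS. Viability read by CellTiter-Glo luminescence at 72 h.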

[3] = test system: U87MG cells; test: Cellular assay: inhibition of 2-HG production in U87MG cells (LC-MS, 48 hours); type: cell-based; settings: Homo sapiens, U-87 MG, 2-HG in media by LC-MS
How it was run: as §1

Sequence of IDH1 R132H (O75874 whole entry R132H): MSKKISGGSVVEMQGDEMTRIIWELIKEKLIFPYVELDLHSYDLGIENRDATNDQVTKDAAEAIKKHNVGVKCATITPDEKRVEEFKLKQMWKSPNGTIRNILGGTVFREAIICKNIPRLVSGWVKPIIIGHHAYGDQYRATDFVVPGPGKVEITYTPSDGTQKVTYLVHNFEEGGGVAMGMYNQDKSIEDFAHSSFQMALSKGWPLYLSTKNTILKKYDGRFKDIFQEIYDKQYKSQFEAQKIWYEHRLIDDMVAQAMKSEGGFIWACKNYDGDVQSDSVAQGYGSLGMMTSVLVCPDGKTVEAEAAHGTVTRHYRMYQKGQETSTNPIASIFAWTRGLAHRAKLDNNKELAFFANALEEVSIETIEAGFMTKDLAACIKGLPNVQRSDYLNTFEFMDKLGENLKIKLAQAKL

SMILES: CC(=O)N1CCC[C@H]1C(=O)N(c1cccc(F)c1)[C@H](C(=O)NC1CCCCC1)c1ccccc1C [Compound 370]
- IC50 [1]: 100 to 1000 nM
- IC50 [2]: 1000 to 5000 nM
- IC50 [3]: 250 to 1000 nM

SMILES: COC(=O)N1CCCC[C@H]1C(=O)N(c1cccc(F)c1)[C@H](C(=O)NC1CCCCC1)c1ccccc1C [Compound 336]
- IC50 [1]: 100 to 1000 nM
- IC50 [2]: 250 to 1000 nM
- IC50 [3]: 250 to 1000 nM

SMILES: Cc1ccccc1C(C(=O)NC1CC(F)(F)C1)N(C(=O)CNc1cccnc1F)c1cccc(F)c1 (stereo not drawn) [Compound 381]
- IC50 [1]: ≤ 100 nM
- IC50 [2]: ≤ 250 nM
- IC50 [3]: ≤ 250 nM

SMILES: Cc1ccccc1C(C(=O)NC1CCCCC1)N(C(=O)C(=O)NCc1ccncc1)c1cccc(F)c1 (stereo not drawn) [Compound 270]
- IC50 [1]: 100 to 1000 nM
- IC50 [2]: 1000 to 5000 nM
- IC50 [3]: 1000 to 5000 nM

SMILES: CCOC(=O)N1CCC[C@H]1C(=O)N(c1cccc(F)c1)[C@H](C(=O)NC1CCCCC1)c1ccccc1C [Compound 359]
- IC50 [1]: ≤ 100 nM
- IC50 [2]: 250 to 1000 nM
- IC50 [3]: ≤ 250 nM

SMILES: Cc1ccccc1C(C(=O)NC1CCCCC1)N(C(=O)COCc1cccnc1)c1cccc(F)c1 (stereo not drawn) [Compound 233]
- IC50 [1]: 100 to 1000 nM
- IC50 [2]: 250 to 1000 nM
- IC50 [3]: 1000 to 5000 nM

SMILES: Cc1ccccc1C(C(=O)NC1CC(F)(F)C1)N(C(=O)Cn1ccnc1C)c1cccc(F)c1 (stereo not drawn) [Compound 380]
- IC50 [1]: 100 to 1000 nM
- IC50 [2]: 1000 to 5000 nM
- IC50 [3]: ≤ 250 nM

SMILES: Cc1ccccc1C(C(=O)NC1CCCCC1)N(C(=O)Cn1ccnc1C(F)(F)F)c1cccc(F)c1 (stereo not drawn) [Compound 344]
- IC50 [1]: 100 to 1000 nM
- IC50 [2]: 250 to 1000 nM
- IC50 [3]: ≤ 250 nM

SMILES: Cc1ccccc1C(C(=O)NC1CCCCC1)N(C(=O)Cn1ccnc1C)c1cccc(-c2cccc(OC(F)(F)F)c2)c1 (stereo not drawn) [Compound 292]
- IC50 [1]: 100 to 1000 nM
- IC50 [2]: 1000 to 5000 nM
- IC50 [3]: 1000 to 5000 nM

SMILES: Cc1ccccc1[C@@H](C(=O)NC1CCCCC1)N(C(=O)[C@H]1CCCN1C(=O)OC(C)(C)C)c1cccc(F)c1 [Compound 340]
- IC50 [1]: 100 to 1000 nM
- IC50 [2]: 1000 to 5000 nM
- IC50 [3]: 250 to 1000 nM

SMILES: COC(=O)N1CCCC[C@@H]1C(=O)N(c1cccc(F)c1)[C@H](C(=O)NC1CCCCC1)c1ccccc1C [Compound 335]
- IC50 [1]: 100 to 1000 nM
- IC50 [2]: 250 to 1000 nM
- IC50 [3]: 1000 to 5000 nM

SMILES: COC(=O)N1CCN(CC(=O)N(Cc2cccs2)C(C(=O)NC2CCCCC2)c2ccccc2C)CC1 (stereo not drawn) [Compound 208]
- IC50 [1]: 100 to 1000 nM
- IC50 [2]: 1000 to 5000 nM
- IC50 [3]: 1000 to 5000 nM

SMILES: Cc1ccccc1C(C(=O)NC1CCCCC1)N(C(=O)CNCc1cscn1)c1cccc(F)c1 (stereo not drawn) [Compound 267]
- IC50 [1]: 100 to 1000 nM
- IC50 [2]: 250 to 1000 nM
- IC50 [3]: 1000 to 5000 nM

SMILES: Cc1ccccc1C(C(=O)NC1CCN(C(=O)OC(C)(C)C)C1)N(C(=O)Cc1cccs1)c1cccc(F)c1 (stereo not drawn) [Compound 190]
- IC50 [1]: 100 to 1000 nM
- IC50 [2]: 1000 to 5000 nM
- IC50 [3]: 1000 to 5000 nM

SMILES: Cc1ccccc1C(C(=O)NC1CCCCC1)N(C(=O)Cn1ccnc1C)c1cccc(-c2cnn(C)c2)c1 (stereo not drawn) [Compound 223]
- IC50 [1]: 100 to 1000 nM
- IC50 [2]: 250 to 1000 nM
- IC50 [3]: ≤ 250 nM

SMILES: Cc1ccccc1C(C(=O)NC1CCCCC1)N(C(=O)CNc1cccnc1F)c1cccc(F)c1 (stereo not drawn) [Compound 272]
- IC50 [1]: ≤ 100 nM
- IC50 [2]: ≤ 250 nM
- IC50 [3]: ≤ 250 nM

SMILES: CCC(=O)N1CCCC[C@@H]1C(=O)N(c1cccc(F)c1)[C@H](C(=O)NC1CCCCC1)c1ccccc1C [Compound 347]
- IC50 [1]: 100 to 1000 nM
- IC50 [2]: 1000 to 5000 nM
- IC50 [3]: 1000 to 5000 nM

SMILES: COC(=O)N1CCC[C@H]1C(=O)N(c1cccc(F)c1)[C@H](C(=O)NC1CCCCC1)c1ccccc1C [Compound 356]
- IC50 [1]: ≤ 100 nM
- IC50 [2]: ≤ 250 nM
- IC50 [3]: ≤ 250 nM

SMILES: Cc1ccccc1C(C(=O)NC1CCCCC1)N(C(=O)CNCc1ccncc1)c1cccc(F)c1 (stereo not drawn) [Compound 171]
- IC50 [1]: 100 to 1000 nM
- IC50 [2]: 250 to 1000 nM
- IC50 [3]: 1000 to 5000 nM

SMILES: Cc1ccccc1C(C(=O)NC1CCCCC1)N(C(=O)Cc1ccncc1)c1cccc(F)c1 (stereo not drawn) [Compound 311]
- IC50 [1]: ≤ 100 nM
- IC50 [2]: ≤ 250 nM
- IC50 [3]: ≤ 250 nM

SMILES: COC(=O)NCCC(=O)N(c1cccc(F)c1)C(C(=O)NC1CCCCC1)c1ccccc1C (stereo not drawn) [Compound 374]
- IC50 [1]: 100 to 1000 nM
- IC50 [2]: 1000 to 5000 nM
- IC50 [3]: 1000 to 5000 nM

SMILES: Cc1ccccc1C(C(=O)NC1CCCCC1)N(C(=O)CNc1ccc(-c2nnco2)cc1)c1cccc(F)c1 (stereo not drawn) [Compound 290]
- IC50 [1]: ≤ 100 nM
- IC50 [2]: ≤ 250 nM
- IC50 [3]: 250 to 1000 nM

SMILES: Cc1cnn(CC(=O)N(c2cccc(F)c2)C(C(=O)NC2CCCCC2)c2ccccc2C)c1 (stereo not drawn) [Compound 309]
- IC50 [1]: 100 to 1000 nM
- IC50 [2]: 250 to 1000 nM
- IC50 [3]: 1000 to 5000 nM

SMILES: Cc1ccccc1C(C(=O)NC1CCCCC1)N(C(=O)Cn1ccnc1C)c1cccc(N2CCOCC2)c1 (stereo not drawn) [Compound 231]
- IC50 [1]: 100 to 1000 nM
- IC50 [2]: 1000 to 5000 nM
- IC50 [3]: ≤ 250 nM

SMILES: Cc1ccccc1C(C(=O)NC1CCCCC1)N(C(=O)CNCCc1ccccn1)c1cccc(F)c1 (stereo not drawn) [Compound 192]
- IC50 [1]: 100 to 1000 nM
- IC50 [2]: 1000 to 5000 nM
- IC50 [3]: 1000 to 5000 nM

SMILES: Cc1nccn1CC(=O)N(c1cccc(F)c1)C(C(=O)NC1CCCCC1)c1ccccc1F (stereo not drawn) [Compound 312]
- IC50 [1]: 100 to 1000 nM
- IC50 [2]: 1000 to 5000 nM
- IC50 [3]: ≤ 250 nM

SMILES: Cc1ccccc1C(C(=O)NC1CC2CC2C1)N(C(=O)COc1ccccn1)c1cccc(F)c1 (stereo not drawn) [Compound 354]
- IC50 [1]: 100 to 1000 nM
- IC50 [2]: 250 to 1000 nM
- IC50 [3]: 250 to 1000 nM

SMILES: COc1cccc(-c2cccc(N(C(=O)Cn3ccnc3C)C(C(=O)NC3CCCCC3)c3ccccc3C)c2)c1 (stereo not drawn) [Compound 299]
- IC50 [1]: 100 to 1000 nM
- IC50 [2]: 1000 to 5000 nM
- IC50 [3]: 250 to 1000 nM

SMILES: COC(=O)N(C)CC(=O)N(c1cccc(F)c1)C(C(=O)NC1CCCCC1)c1ccccc1C (stereo not drawn) [Compound 341]
- IC50 [1]: ≤ 100 nM
- IC50 [2]: ≤ 250 nM
- IC50 [3]: ≤ 250 nM

SMILES: Cc1ccccc1C(C(=O)NC1CCCCC1)N(C(=O)Cc1n[nH]c2ccccc12)c1cccc(F)c1 (stereo not drawn) [Compound 289]
- IC50 [1]: ≤ 100 nM
- IC50 [2]: ≤ 250 nM
- IC50 [3]: ≤ 250 nM

SMILES: Cc1ccccc1C(C(=O)NC1CCCCC1)N(C(=O)Cn1cccn1)c1cccc(F)c1 (stereo not drawn) [Compound 317]
- IC50 [1]: 100 to 1000 nM
- IC50 [2]: 250 to 1000 nM
- IC50 [3]: 1000 to 5000 nM

SMILES: COC(=O)NCC(=O)N(c1cccc(F)c1)C(C(=O)NC1CCCCC1)c1ccccc1C (stereo not drawn) [Compound 334]
- IC50 [1]: ≤ 100 nM
- IC50 [2]: ≤ 250 nM
- IC50 [3]: ≤ 250 nM

SMILES: COc1ccc(CNCC(=O)N(c2cccc(F)c2)C(C(=O)NC2CCCCC2)c2ccccc2C)cc1 (stereo not drawn) [Compound 219]
- IC50 [1]: 100 to 1000 nM
- IC50 [2]: 1000 to 5000 nM
- IC50 [3]: 1000 to 5000 nM

SMILES: Cc1ccccc1C(C(=O)NC1CCCCC1)N(C(=O)CNc1ncc[nH]1)c1cccc(F)c1 (stereo not drawn) [Compound 308]
- IC50 [1]: 100 to 1000 nM
- IC50 [2]: 1000 to 5000 nM
- IC50 [3]: ≤ 250 nM

SMILES: Cc1nccn1CC(=O)N(c1cccc(F)c1)C(C(=O)NC1CCCCC1)c1ccccc1 (stereo not drawn) [Compound 295]
- IC50 [1]: 100 to 1000 nM
- IC50 [2]: 1000 to 5000 nM
- IC50 [3]: ≤ 250 nM

SMILES: Cc1ccccc1C(C(=O)NC1CCCCC1)N(C(=O)COc1ccc(F)cn1)c1cccc(F)c1 (stereo not drawn) [Compound 260]
- IC50 [1]: ≤ 100 nM
- IC50 [2]: ≤ 250 nM
- IC50 [3]: 250 to 1000 nM

SMILES: Cc1ccccc1[C@@H](C(=O)NC1CCCCC1)N(C(=O)[C@@H]1CCCCN1C(=O)OC(C)C)c1cccc(F)c1 [Compound 339]
- IC50 [1]: 100 to 1000 nM
- IC50 [2]: 1000 to 5000 nM
- IC50 [3]: 1000 to 5000 nM

SMILES: Cc1ccccc1C(C(=O)NC1CCCCC1)N(C(=O)Cn1ccnc1C)c1ccn(C)n1 (stereo not drawn) [Compound 246]
- IC50 [1]: 100 to 1000 nM
- IC50 [2]: 1000 to 5000 nM
- IC50 [3]: 250 to 1000 nM

SMILES: Cc1ccccc1C(C(=O)NC1CCCCC1)N(C(=O)Cn1ccc(F)cc1=N)c1cccc(F)c1 (stereo not drawn) [Compound 240]
- IC50 [1]: ≤ 100 nM
- IC50 [2]: 250 to 1000 nM
- IC50 [3]: 1000 to 5000 nM
